# Read-outs that look alike come from different tables or passages of the source.
# Tests used:
# Assay type in all cases: in vivo
# [1] = system: cotton bug (Dysdercus fasciatus); assay: Cotton bug test (topical application on II. stage larvae); details: for AJH effect: adultoid symptoms
# Procedure: (1) Cotton bug test A dilution series is prepared from the test compound with acetone and 0.2 μl of each dilution is topically applied onto the back part of larvae of the II. stage of growth with the aid of a Hamiltion syringe. The active ingredient is absorbed through the cuticula. The animals are kept in a large glass and fed with cotton grains and water. After adult shedding the surviving insects are observed for eventual adultoid symptoms, the egg-reproduction and the development of the ovules is evaluated too. (Remark: in the cotton bug test 50 insects are used).
# [2] = system: Caenorhabditis elegans; assay: Caenorhabditis elegans test (treated NGM agar plate, young adults)
# Procedure: (5) Caenorhabditis elegans 0.5 ml of the acetonous solution of the test compound is applied onto a NGM agar plate free from bacteria in a Petri dish. After the acetone has dried 25-30 young adults are placed on the plate. After 24 hours the surviving and killed insects are counted.
# [3] = system: domestic fly (Musca domestica); assay: Domestic fly test (larvae in treated nutrient medium); details: 0.1% related to milk, 0.05% related to total nutrient medium
# Procedure: The fly larvae are grown on a nutrient medium of the following composition: 2 ml of milk; 2 ml of water; 2 g of wheat bran; 0.1 ml of saturated alcoholic nipagin solution.
# The nutrient medium is filled into cylindrical glass vials (30×100 mm) and 25 fly larvae are raised in each vial. The test compound is dissolved in milk; the end concentration (related to milk) amounts to 0.1% which corresponds to 0.05% (related to the total nutrient medium). The solution of the active ingredient is admixed with the nutrient medium whereupon […] of domestic fly larvae of the I. stage are placed into each vial and the vials are closed with a hard cotton-wool stopper. The nymphs emerging from the larvae are collected in each vial, counted and kept in a Petri dish (diameter 25 mm) until flies hatch from the nymphs. The hatched flies are counted.
# [4] = system: cabbage butterfly (Pieris brassicae); assay: Cabbage butterfly test (sprayed cabbage seedlings); details: 50 EC; for pest or weed control at 0.1 % / pest or weed control at 0.01 %: Pieris brassicae, read-out: Killing rate of larvae
# Procedure: From the 50 EC of the test compound a diluted series is prepared with water and the host seedlings (cabbage) are sprayed with this composition until the spray runs down. The spray is allowed to dry whereupon 20 young larvae of the II. stage are placed on each treated plant and the seedlings are kept under so-called "long-day" illumination (18 hours of illumination and 6 hours of darkness). The nibbled plants are replaced by similarly sprayed plants if necessary. The killing rate of the insects, the growth rate of the larvae and the morphological deformations of the surviving nymphs and adults are registered.
# In the 50 EC compositions the concentration of compounds 23 and 25 amounts to 0.01% and that of the other compounds to 0.1%.
# [5] = system: tomato root gall nematode (Meloidogyne incognita); assay: Tomato root gall nematode test (II. stage infective larvae, treated NGM agar plate); details: 72 hours; for mortality at 200 µg/mL / mortality at 400 µg/mL: Meloidogyne incognita
# Procedure: (6) Root gall nematode The test is carried out on II. stage infective larvae, which are collected from the root of tomato plant, placed on a filter and incubated in sterile water at 25° C. The hatched larvae are collected every 24 hours and immediately placed onto the treated nutrient medium. As nutrient medium NGM agar plate free from bacterial is used. 0.5 ml of the acetoneous solution of the test compound is applied onto the surface of the plate in a Petri-dish. After the acetone has evaporated 5 μl of the larva suspension is applied onto each plate. After 72 hours the surviving and killed insects are counted.
# [6] = Caenorhabditis elegans, 24 h, read-out: Lethality
# [7] = 200 μg/ml, first test, read-out: mortality 1.
# [8] = 200 μg/ml, second test, read-out: mortality 2.
# [9] = 200 μg/ml, read-out: mortality Average
# [10] = 400 μg/ml, first test, read-out: mortality 1.
# [11] = 400 μg/ml, second test, read-out: mortality 2.
# [12] = 400 μg/ml, read-out: mortality Average
smiles,measurement,setting,value
COc1cc2c(cc1OC(C)C)OC(C)(C)C=C2 [Compound 8],LD50,[1],0.45 μg/insect
same,Sterilizing effect,[1],0.2 μg/insect
same,AJH effect,[1],1 μg/insect
same,Size of descendant population,[2]; 200 μg/ml,reduced
same,Size of descendant population,[2]; 400 μg/ml,no descendants
same,mortality at 200 µg/mL,[2]; [6],70%
same,mortality at 400 µg/mL,[2]; [6],80%
C=CCOc1cc2c(cc1OC)C=CC(C)(C)O2 [Compound 7],Size of descendant population,[2]; 200 μg/ml,no descendants
same,Size of descendant population,[2]; 400 μg/ml,no descendants
same,mortality at 200 µg/mL,[2]; [6],90%
same,mortality at 400 µg/mL,[2]; [6],90%
COc1ccc2c(c1OC)OC(C)(C)C=C2 [Compound 35],Remarks,[2]; 200 μg/ml,paralysation
same,Size of descendant population,[2]; 200 μg/ml,reduced
same,Remarks,[2]; 400 μg/ml,paralysation
same,Size of descendant population,[2]; 400 μg/ml,no descendants
same,mortality at 200 µg/mL,[2]; [6],67%
same,mortality at 400 µg/mL,[2]; [6],100%
same,Survival adult,[3],0%
same,Survival nymph,[3],12%
C#CCOc1cc(C)c2c(c1)OC(C)(C)C=C2 [Compound 44],Remarks,[2]; 200 μg/ml,paralysation
same,Size of descendant population,[2]; 200 μg/ml,some descendants
same,Remarks,[2]; 400 μg/ml,paralysation
same,Size of descendant population,[2]; 400 μg/ml,no descendants
same,Survival adult,[4]; 0.1%,17%
same,Survival nymph,[4]; 0.1%,17%
same,pest or weed control at 0.1 %,[4]; 0.1%,83%
same,Survival adult,[3],10.6%
same,Survival nymph,[3],50.9%
CCOc1ccc2c(c1OC)OC(C)(C)C=C2 [Compound 50],Size of descendant population,[2]; 200 μg/ml,reduced
same,Size of descendant population,[2]; 400 μg/ml,no descendants
same,Survival adult,[4]; 0.1%,24%
same,Survival nymph,[4]; 0.1%,24%
same,pest or weed control at 0.1 %,[4]; 0.1%,76%
same,Survival adult,[3],4.2%
same,Survival nymph,[3],5.4%
Cc1cc(OC(C)C)cc2c1C=CC(C)(C)O2 [Compound 40],Survival adult,[3],27.6%
same,Survival nymph,[3],50.9%
CCCOc1cc(OC)c2c(c1)OC(C)(C)C=C2 [Compound 46],Survival adult,[4]; 0.1%,12%
same,Survival nymph,[4]; 0.1%,12%
same,pest or weed control at 0.1 %,[4]; 0.1%,88%
same,Survival adult,[3],6.4%
same,Survival nymph,[3],9.1%
CC1(C)C=Cc2cc3c(cc2O1)OCO3 [Compound 4],Size of descendant population,[2]; 100 μg/ml,no descendants
same,Size of descendant population,[2]; 200 μg/ml,no descendants
same,Size of descendant population,[2]; 400 μg/ml,no descendants
same,mortality at 100 µg/mL,[2]; [6],100%
same,mortality at 200 µg/mL,[2]; [6],100%
same,mortality at 400 µg/mL,[2]; [6],100%
same,Nematocidal effect,[5]; 200 μg/ml,strong
same,Nematocidal effect,[5]; 400 μg/ml,strong
same,mortality at 200 µg/mL,[5]; [7],84%
same,mortality at 200 µg/mL,[5]; [8],69%
same,mortality at 200 µg/mL,[5]; [9],77%
same,mortality at 400 µg/mL,[5]; [10],96%
same,mortality at 400 µg/mL,[5]; [11],92%
same,mortality at 400 µg/mL,[5]; [12],94%
CCCCOc1cc2c(cc1OCCCC)OC(C)(C)C=C2 [Compound 14],Size of descendant population,[2]; 200 μg/ml,reduced
same,Size of descendant population,[2]; 400 μg/ml,reduced
same,mortality at 200 µg/mL,[2]; [6],30%
same,mortality at 400 µg/mL,[2]; [6],80%
"CCC(C)Oc1cc(OC)c2c(c1)OC(C)(C)C=C2 (stereo not shown) [Compound 48, 5-methoxy-7-sec. butoxy-2,2-dimethyl-2H-chromene]",pest or weed control at 0.1 %,[4]; 0.1%,100%
COc1cc(OCC(C)C)cc2c1C=CC(C)(C)O2 [Compound 49],pest or weed control at 0.1 %,[4]; 0.1%,100%
same,Survival adult,[3],0%
same,Survival nymph,[3],0%
COc1cc(OC(C)C)cc2c1C=CC(C)(C)O2 [Compound 47],Survival adult,[4]; 0.1%,9%
same,Survival nymph,[4]; 0.1%,13%
same,pest or weed control at 0.1 %,[4]; 0.1%,87%
CCOc1cc2c(cc1OCC)OC(C)(C)C=C2 [Compound 2],Nematocidal effect,[5]; 200 μg/ml,strong
same,Nematocidal effect,[5]; 400 μg/ml,strong
same,mortality at 200 µg/mL,[5]; [7],74%
same,mortality at 200 µg/mL,[5]; [8],69%
same,mortality at 200 µg/mL,[5]; [9],72%
same,mortality at 400 µg/mL,[5]; [10],83%
same,mortality at 400 µg/mL,[5]; [11],90%
same,mortality at 400 µg/mL,[5]; [12],87%
CCC(C)Oc1cc(C)c2c(c1)OC(C)(C)C=C2 (stereo not shown) [Compound 41],Survival adult,[4]; 0.1%,14%
same,Survival nymph,[4]; 0.1%,19%
same,pest or weed control at 0.1 %,[4]; 0.1%,11%
same,Survival adult,[3],12.5%
same,Survival nymph,[3],25.4%
Cc1cc(OC2CCCC2)cc2c1C=CC(C)(C)O2 [Compound 43],pest or weed control at 0.1 %,[4]; 0.1%,100%
same,Survival adult,[3],31.8%
same,Survival nymph,[3],52.7%
C#CCOc1ccc2c(c1)OC(C)(C)C=C2 [Compound 37],Remarks,[2]; 200 μg/ml,paralysation
same,Size of descendant population,[2]; 200 μg/ml,no descendants
same,Remarks,[2]; 400 μg/ml,paralysation
same,Size of descendant population,[2]; 400 μg/ml,no descendants
same,mortality at 200 µg/mL,[2]; [6],100%
same,mortality at 400 µg/mL,[2]; [6],100%
COc1cc2c(cc1OCC(C)C)OC(C)(C)C=C2 [Compound 21],LD50,[1],0.4 μg/insect
COc1c(OC(C)C)ccc2c1OC(C)(C)C=C2 [Compound 52],Size of descendant population,[2]; 200 μg/ml,reduced
same,Size of descendant population,[2]; 400 μg/ml,reduced
same,Survival adult,[4]; 0.1%,32%
same,Survival nymph,[4]; 0.1%,36%
same,pest or weed control at 0.1 %,[4]; 0.1%,64%
same,Survival adult,[3],0%
same,Survival nymph,[3],12%
CCC(C)Oc1cc2c(cc1OC)C=CC(C)(C)O2 (stereo not shown) [Compound 20],LD50,[1],0.4 μg/insect
same,AJH effect,[1],0.1 μg/insect
CCOc1cc2c(cc1OC)OC(C)(C)C=C2 [Compound 34],Remarks,[2]; 200 μg/ml,paralysation
same,Size of descendant population,[2]; 200 μg/ml,reduced
same,Remarks,[2]; 400 μg/ml,paralysation
same,Size of descendant population,[2]; 400 μg/ml,some descendants
same,mortality at 200 µg/mL,[2]; [6],15%
same,mortality at 400 µg/mL,[2]; [6],23%
same,Survival adult,[3],12.8%
same,Survival nymph,[3],85%
"CCC(C)Oc1ccc2c(c1OC)OC(C)(C)C=C2 (stereo not shown) [Compound 53, 7sec. butoxy-8-methoxy-2,2-dimethyl-2chromene]",Size of descendant population,[2]; 200 μg/ml,reduced
same,Size of descendant population,[2]; 400 μg/ml,reduced
same,pest or weed control at 0.1 %,[4]; 0.1%,100%
CC(C)=CCOc1cc2c(cc1OCC=C(C)C)OC(C)(C)C=C2 [Compound 10],LD50,[1],0.6 μg/insect
COc1c(OCC(C)C)ccc2c1OC(C)(C)C=C2 [Compound 54],Survival adult,[4]; 0.1%,7%
same,Survival nymph,[4]; 0.1%,7%
same,pest or weed control at 0.1 %,[4]; 0.1%,93%
CCCOc1ccc2c(c1)OC(C)(C)C=C2 [Compound 25],Survival adult,[4]; 0.01%,39%
same,Survival nymph,[4]; 0.01%,48%
same,pest or weed control at 0.01 %,[4]; 0.01%,52%
CCC(C)Oc1ccc2c(c1)OC(C)(C)C=C2 (stereo not shown) [Compound 28],Survival adult,[3],25.6%
same,Survival nymph,[3],115%
CC(C)COc1ccc2c(c1)OC(C)(C)C=C2 [Compound 29],Survival adult,[3],28.2%
same,Survival nymph,[3],100%
"COc1ccc2c(c1)OC(C)(C)C=C2 [Compound 23, 7-methoxy-2,2-dimethyl-2H-chromene, reference compound]",Size of descendant population,[2]; 200 μg/ml,reduced
same,Size of descendant population,[2]; 400 μg/ml,no descendants
same,Survival adult,[4]; 0.01%,50%
same,Survival nymph,[4]; 0.01%,59%
same,pest or weed control at 0.01 %,[4]; 0.01%,41%
same,Survival adult,[3],33.3%
same,Survival nymph,[3],100%
CCOc1cc(C)c2c(c1)OC(C)(C)C=C2 [Compound 38],Survival adult,[4]; 0.1%,19%
same,Survival nymph,[4]; 0.1%,19%
same,pest or weed control at 0.1 %,[4]; 0.1%,81%
same,Survival adult,[3],14.8%
same,Survival nymph,[3],40%
C=CCOc1cc2c(cc1OCC=C)OC(C)(C)C=C2 [Compound 5],Size of descendant population,[2]; 200 μg/ml,some descendants
same,Size of descendant population,[2]; 400 μg/ml,no descendants
same,Nematocidal effect,[5]; 400 μg/ml,medial
same,mortality at 200 µg/mL,[5]; [7],18%
same,mortality at 200 µg/mL,[5]; [8],29%
same,mortality at 200 µg/mL,[5]; [9],23%
same,mortality at 400 µg/mL,[5]; [10],45%
same,mortality at 400 µg/mL,[5]; [11],43%
same,mortality at 400 µg/mL,[5]; [12],44%
